Measured values taken from patent US20240360194A1, “New Peptides as Potent and Selective GIP Receptor Agonists” (Sanofi, priority 2021, published 2024).
pEC50, pIC50: −log10 of the molar value. ≈ marks a conversion by molar mass, not a printed value. Where two headings read alike, the source gives them in different places. Numbered stars: 1 amine (or outer) side, 2 acyl side, 3 side chain; on linkers, the order of the positions; unused ones are H or OH. Square brackets hold non-standard residues; d marks the D form. Side chains are listed from the residue outwards. Peptide text beside a SMILES is read from it. * marks the point of attachment. C18 diacid = O=C(O)CCCCCCCCCCCCCCCCC(=O)*; γGlu = O=C(O)[C@H](CCC(=O)[*:2])N[*:1]; AEEA = NCCOCCOCC(=O)O; Aib = CC(C)(N)C(=O)O

Key:
[1] = Chemical stability assessment (UHPLC-UV purity loss on storage in solution); type: physicochemical
Outline: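 Peptides dissolved at ~300 μM (purity-corrected) in 20 mM phosphate pH 7.4, or 8 mM phosphate pH 7.4 with 14 mg/ml propylene glycol and 5.5 mg/ml phenol; filtered, stored 28 days at 5 and 40 °C. Supernatant analysed by UHPLC-UV; stability expressed as relative purity loss.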

[2] = Pharmacokinetic evaluation in rats; type: in vivo; details: male, SD, rat
Procedure: (§1) Compounds were administered in a suitable buffer system, e.g. PBS buffer solution at pH7.4 or DPBS solution at concentrations of 0.05, 0.1, 0.5 or 1 mg/ml depending on dose, species and administration volume. Male SD rats were dosed 0.25 mg/kg, 0.5 mg/kg or 1 mg/kg intravenously (i.v.) or subcutaneously (s.c.). Blood samples were collected after 0.08, 0.25, 0.5, 1, 2, 4, 8, 24, 32, and 48 h post i.v. application and 0.25, 0.5, 1, 2, 4, 8, 24, 32, and 48 h post s.c. application, respectively. Plasma samples were analysed after protein precipitation via liquid chromatography mass spectrometry (LC/MS). PK parameters and half-life were calculated using Phoenix-WinNonlin 8.1 using a non-compartmental model and linear trapezoidal interpolation calculation. Pharmacokinetic profiles were determined as described in Methods.

[3] = Pharmacokinetic evaluation in mice; type: in vivo, female C57Bl/6 mice; details: female, C57Bl/6, mouse
Procedure: as §1, with “Female C57Bl/6 mice” for “Male SD rats”, “The mice were sacrificed, and blood” for “Blood”

[4] = biological target: T1, human GLP-1 receptor (hGLP-1R) (Homo sapiens, UniProt P43220); experiment: Binding assay, displacement of [125I]GLP-1 from HEK-293 membranes over-expressing GLP-1R (SPA); details: [125I]GLP-1 displacement
Outline: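 Membranes from HEK-293 cells over-expressing human GIPR or GLP-1R, isolated by homogenising, sonicating and ultracentrifuging at 100000×g into HEPES/EDTA/NaCl buffer with protease inhibitors, were used for binding.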

[5] = biological target: T1, human GLP-1 receptor (hGLP-1R); experiment: In vitro cellular cAMP assay for GLP-1 receptor efficacy (HEK-293 cell line over-expressing receptor); type: cell-based; details: HEK-293, 0.1% BSA
Target sequence in this assay (P43220 24-463): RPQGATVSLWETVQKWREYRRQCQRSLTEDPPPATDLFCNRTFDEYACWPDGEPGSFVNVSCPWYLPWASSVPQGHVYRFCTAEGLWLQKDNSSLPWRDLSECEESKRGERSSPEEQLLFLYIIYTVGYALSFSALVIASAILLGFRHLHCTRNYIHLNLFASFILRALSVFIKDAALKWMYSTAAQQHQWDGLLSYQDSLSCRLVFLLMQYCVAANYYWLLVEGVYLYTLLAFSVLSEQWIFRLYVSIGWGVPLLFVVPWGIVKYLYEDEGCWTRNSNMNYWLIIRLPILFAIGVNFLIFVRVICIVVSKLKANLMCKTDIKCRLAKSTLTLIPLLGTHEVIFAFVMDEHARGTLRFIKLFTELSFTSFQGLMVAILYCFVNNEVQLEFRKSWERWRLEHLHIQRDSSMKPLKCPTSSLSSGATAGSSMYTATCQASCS

[6] = Solubility assessment (UHPLC-UV of supernatant, target 10 mg/ml); type: physicochemical
Outline: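 Peptides at 10 mg/ml (purity-corrected) in 100 mM phosphate pH 7.4, optionally with 2.7 mg/ml m-cresol; gentle agitation 1 h, then 5° C. overnight (24 h). Supernatant after 15 min centrifugation at 2500 RCF quantified by UHPLC-UV, with sequence-based extinction coefficients.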

[7] = Chemical stability buffer system A: 20 mM phosphate buffer pH 7.4, ~300 μM

SMILES	Relative purity loss over 28 days at 40° C. [1, 7] [%]	AUC(0-t) ([2]; in vivo, iv, 0.25 mg/kg) [ng·h/mL]	Cmax ([2]; in vivo, iv, 0.25 mg/kg) [ng/mL]	clearance ([2]; in vivo, iv, 0.25 mg/kg) [mL/h/kg]	half-life ([2]; in vivo, iv, 0.25 mg/kg) [min]	AUC(0-t) ([2]; in vivo, sc, 0.5 mg/kg) [ng·h/mL]	Cmax ([2]; in vivo, sc, 0.5 mg/kg) [ng/mL]	half-life ([2]; in vivo, sc, 0.5 mg/kg) [min]	AUC(0-t) ([3]; in vivo, iv, 0.25 mg/kg) [ng·h/mL]	Cmax ([3]; in vivo, iv, 0.25 mg/kg) [ng/mL]	clearance ([3]; in vivo, iv, 0.25 mg/kg) [mL/min/kg]	half-life ([3]; in vivo, iv, 0.25 mg/kg) [min]	AUC(0-t) ([3]; in vivo, sc, 0.5 mg/kg) [ng·h/mL]	Cmax ([3]; in vivo, sc, 0.5 mg/kg) [ng/mL]	half-life ([3]; in vivo, sc, 0.5 mg/kg) [min]	pIC50 [4]	pEC50 [5]	further results
CC[C@H](C)[C@H](NC(=O)[C@H](CCC(=O)O)NC(=O)[C@H](CCC(=O)O)NC(=O)[C@H](CCCCNC(=O)COCCOCCNC(=O)COCCOCCNC(=O)CC[C@H](NC(=O)CCCCCCCCCCCCCCCCC(=O)O)C(=O)O)NC(=O)C(C)(C)NC(=O)[C@@H](NC(=O)[C@H](CO)NC(=O)[C@H](CC(C)C)NC(=O)[C@H](CC(=O)O)NC(=O)[C@H](CO)NC(=O)[C@@H](NC(=O)[C@H](Cc1ccccc1)NC(=O)[C@@H](NC(=O)CNC(=O)[C@H](CCC(=O)O)NC(=O)C(C)(C)NC(=O)[C@@H](N)Cc1ccc(O)cc1)[C@@H](C)O)[C@@H](C)CC)[C@@H](C)CC)C(=O)N[C@@H](Cc1c[nH]cn1)C(=O)N[C@@H](CCC(N)=O)C(=O)NC(C)(C)C(=O)N[C@@H](CCC(=O)O)C(=O)N[C@@H](Cc1ccccc1)C(=O)N[C@H](C(=O)N[C@@H](CCC(=O)O)C(=O)N[C@@H](Cc1c[nH]c2ccccc12)C(=O)N[C@@H](CC(C)C)C(=O)N[C@@H](CC(C)C)C(=O)N[C@@H](C)C(=O)N[C@@H](CCC(N)=O)C(=O)NCC(=O)N1CCC[C@H]1C(=O)N[C@@H](CO)C(=O)N[C@@H](CO)C(=O)NCC(=O)N[C@@H](C)C(=O)N1CCC[C@H]1C(=O)N1CCC[C@H]1C(=O)N1CCC[C@H]1C(=O)N[C@@H](CO)C(N)=O)[C@@H](C)CC [SEQ ID NO: 19, H2N-Y-Aib-E-G-T-F-I-S-D-L-S-I-Aib-K[{AEEA}2-gGlu-C18OH]-E-E-I-H-Q-Aib-E-F-I-E-W-L-L-A-Q-G-P-S-S-G-A-P-P-P-S-NH2] (H-Y[Aib]EGTFISDLSI[Aib]K([AEEA-AEEA-γGlu-C18 diacid])EEIHQ[Aib]EFIEWLLAQGPSSGAPPPS-NH2)	4.3	194000	12800	1.09	1180	189000	5590	1210	20800	3750	0.197	521	41100	2420	618	6.74	< 8.00	bioavailability ([2]; in vivo, sc, 0.5 mg/kg): 54%; F ([3]; in vivo, sc, 0.5 mg/kg): 101%
CC[C@H](C)[C@H](NC(=O)[C@H](Cc1ccccc1)NC(=O)[C@H](CCC(=O)O)NC(=O)[C@H](CCC(=O)O)NC(=O)[C@H](CCC(N)=O)NC(=O)[C@H](Cc1c[nH]cn1)NC(=O)[C@@H](NC(=O)[C@H](CCCNC(=N)N)NC(=O)[C@H](CC(=O)O)NC(=O)[C@H](CCCCNC(=O)COCCOCCNC(=O)COCCOCCNC(=O)CC[C@H](NC(=O)CCCCCCCCCCCCCCCCC(=O)O)C(=O)O)NC(=O)C(C)(C)NC(=O)[C@@H](NC(=O)[C@H](CO)NC(=O)[C@H](CC(C)C)NC(=O)[C@H](CC(=O)O)NC(=O)[C@H](CO)NC(=O)[C@@H](NC(=O)[C@H](Cc1ccccc1)NC(=O)[C@@H](NC(=O)CNC(=O)[C@H](CCC(=O)O)NC(=O)C(C)(C)NC(=O)[C@@H](N)Cc1ccc(O)cc1)[C@@H](C)O)[C@@H](C)CC)[C@@H](C)CC)[C@@H](C)CC)C(=O)N[C@@H](CCC(N)=O)C(=O)N[C@@H](Cc1c[nH]c2ccccc12)C(=O)N[C@@H](CC(C)C)C(=O)N[C@@H](CC(C)C)C(=O)N[C@@H](C)C(=O)N[C@@H](CCC(N)=O)C(=O)NCC(=O)N1CCC[C@H]1C(=O)N[C@@H](CO)C(=O)N[C@@H](CO)C(=O)NCC(=O)N[C@@H](C)C(=O)N1CCC[C@H]1C(=O)N1CCC[C@H]1C(=O)N1CCC[C@H]1C(=O)N[C@@H](CO)C(N)=O [SEQ ID NO: 35, H2N-Y-Aib-E-G-T-F-I-S-D-L-S-I-Aib-K[{AEEA}2-gGlu-C18OH]-DRIHQEEFIQWLLAQGPSSGAPPPS-NH2] (H-Y[Aib]EGTFISDLSI[Aib]K([AEEA-AEEA-γGlu-C18 diacid])DRIHQEEFIQWLLAQGPSSGAPPPS-NH2)	8.3	41600	5380	5.51	870	49900	2010	858	12800	1850	0.325	371	21800	1400	418	< 7.00	< 8.00	F ([2]; in vivo, sc, 0.5 mg/kg): 73%; bioavailability ([3]; in vivo, sc, 0.5 mg/kg): 86%; Soluble amount ([6]; 24 h, pH 7.4): >9.7 mg/mL; solubility at 24 h ([6]; pH 7.4, Soluble amount): > 9500 µg/mL
CC[C@H](C)[C@H](NC(=O)[C@H](CCCNC(=N)N)NC(=O)[C@H](CC(=O)O)NC(=O)[C@H](CCCCNC(=O)COCCOCCNC(=O)COCCOCCNC(=O)CC[C@H](NC(=O)CCCCCCCCCCCCCCCCC(=O)O)C(=O)O)NC(=O)C(C)(C)NC(=O)[C@@H](NC(=O)[C@H](CO)NC(=O)[C@H](CC(C)C)NC(=O)[C@H](CC(=O)O)NC(=O)[C@H](CO)NC(=O)[C@@H](NC(=O)[C@H](Cc1ccccc1)NC(=O)[C@@H](NC(=O)CNC(=O)[C@H](CCC(=O)O)NC(=O)C(C)(C)NC(=O)[C@@H](N)Cc1ccc(O)cc1)[C@@H](C)O)[C@@H](C)CC)[C@@H](C)CC)C(=O)N[C@@H](Cc1c[nH]cn1)C(=O)N[C@@H](CCC(N)=O)C(=O)NC(C)(C)C(=O)N[C@@H](CCC(=O)O)C(=O)N[C@@H](Cc1ccccc1)C(=O)N[C@H](C(=O)N[C@@H](CCC(=O)O)C(=O)N[C@@H](Cc1c[nH]c2ccccc12)C(=O)N[C@@H](CC(C)C)C(=O)N[C@@H](CC(C)C)C(=O)N[C@@H](C)C(=O)N[C@@H](CCC(N)=O)C(=O)N[C@@H](CCCNC(=N)N)C(=O)NCC(N)=O)[C@@H](C)CC [SEQ ID NO: 6, H2N-Y-Aib-E-G-T-F-I-S-D-L-S-I-Aib-K[{AEEA}2-gGlu-C18OH]-D-R-I-H-Q-Aib-E-F-I-E-W-L-L-A-Q-R-G-NH2]	5.6															6.81	< 8.00	Relative purity loss over 28 days at 40° C. ([1]; Chemical stability buffer system B: 8 mM phosphate buffer pH 7.4, 14 mg/ml propylene glycol, 5.5 mg/ml phenol): 5.9%; AUC(0-t) ([2]; plasma, iv, rats, 0.25 mg/kg i.v., read-out: AUClast): 35700 ng·h/mL; clearance ([2]; plasma, iv, rats, 0.25 mg/kg i.v., read-out: Cl (converted)): 6.7 mL/h/kg; Cmax ([2]; plasma, iv, rats, 0.25 mg/kg i.v., read-out: Cmax): 4620 ng/mL; half-life ([2]; plasma, iv, rats, 0.25 mg/kg i.v., read-out: T1/2 (converted)): 672 min; AUC(0-t) ([2]; plasma, sc, rats, 0.5 mg/kg s.c., read-out: AUClast): 69100 ng·h/mL; Cmax ([2]; plasma, sc, rats, 0.5 mg/kg s.c., read-out: Cmax): 2880 ng/mL; bioavailability ([2]; plasma, sc, rats, 0.5 mg/kg s.c., read-out: F): 98%; half-life ([2]; plasma, sc, rats, 0.5 mg/kg s.c., read-out: T1/2 (converted)): 582 min; AUC(0-t) ([3]; plasma, iv, mice, 0.25 mg/kg i.v., read-out: AUClast): 20800 ng·h/mL; clearance ([3]; plasma, iv, mice, 0.25 mg/kg i.v., read-out: Cl (converted)): 0.198 mL/min/kg; Cmax ([3]; plasma, iv, mice, 0.25 mg/kg i.v., read-out: Cmax): 3470 ng/mL; half-life ([3]; plasma, iv, mice, 0.25 mg/kg i.v., read-out: T1/2 (converted)): 474 min; AUC(0-t) ([3]; plasma, sc, mice, 0.5 mg/kg s.c., read-out: AUClast): 37500 ng·h/mL; Cmax ([3]; plasma, sc, mice, 0.5 mg/kg s.c., read-out: Cmax): 2390 ng/mL; bioavailability ([3]; plasma, sc, mice, 0.5 mg/kg s.c., read-out: F): 91%; half-life ([3]; plasma, sc, mice, 0.5 mg/kg s.c., read-out: T1/2 (converted)): 493 min; solubility at 24 h ([6]; 100 mM phosphate buffer pH 7.4 (solubility buffer system A), pH 7.4, Solubility buffer system A: 100 mM phosphate buffer pH 7.4, read-out: Soluble amount): > 9000 µg/mL; solubility at 24 h ([6]; pH 7.4, Solubility buffer system C: 100 mM phosphate buffer pH 7.4, 2.7 mg/ml m-cresol, read-out: Soluble amount): 1800 µg/mL (≈ 415 µM)
